{
  "source": "patent US20240200074A1",
  "about": "“METHOD AND COMPOSITIONS FOR PREVENTING TUMOR DEVELOPMENT AND METASTASIS” (The Administrators of the Tulane Educational Fund, priority 2021, published 2024)",
  "key": {"U87": {"test_system": "U87", "assay": "MTT assay with IGU, adult GBM cell line", "assay_type": "cell-based, human", "method": "(§1) In vitro investigations were carried out using transduced TNBC cell line (MDAMB-231) and patient derived TNBC cells (4IC), pediatric GBM cell line (KNS), and adult GBM cell line (U87) by targeting and suppressing/silencing TRAF3IP2 expression using shRNA Lentiviral vector (TRAF3IP2KD) versus shRNA control (SCR). Using MTT assay, we treated malignant cells with low and high concentrations of IGU to test cell proliferation, viability, and apoptosis compared to vehicle (DMSO) treated cells. It is shown in FIG. 16 that the silencing of TRAF3IP2 enhances the effect of IGU on adult glioblastoma cells (U87), pediatric glioblastoma cells (KNS) and on triple negative cancer cell growth (data not shown)."}, "KNS": {"test_system": "KNS", "assay": "MTT assay with IGU, pediatric GBM cell line", "assay_type": "cell-based, human", "method": "as §1"}, "4IC": {"test_system": "4IC", "assay": "Cell cycle profile of 4IC cells in vitro, Paclitaxel and TRAF3IP2 knockdown", "assay_type": "cell-based, human", "description": "One chemotherapy agent being tested is Paclitaxel. […] Paclitaxel has been previously shown to arrest cell cycle progression at the G2/M phase, resulting in apoptosis."}, "wild type 4IC cells": {"test_system": "wild type 4IC cells", "assay": "4IC tumors in vivo, combination therapy with Paclitaxel and TRAF3IP2-AO", "conditions": "vs SCR-AO group", "method": "At first, tumors were induced using wild type 4IC cells using a similar set up described in FIG. 5. After tumor induction, each group was treated with one of the following: SCR-AO (4IC SCR-AO Treated), SCR-AO and Paclitaxel (SCR-AO+Paclitaxel Treated), TRAF3IP2-AO Treated, or TRAF3IP2-AO and Paclitaxel (TRAF3IP2-AO+Paclitaxel Treated)."}, "TNBC cells": {"test_system": "TNBC cells", "assay": "Membrane potential assay (mitochondrial) in TNBC cells", "assay_type": "cell-based, human", "conditions": "in TRAF3IP2 knockdown cells"}, "4IC tumors": {"test_system": "4IC tumors", "assay": "Treatment of late stage metastatic TNBC, bioluminescence imaging", "assay_type": "in vivo, mice", "conditions": "100 μg in 50 μl interperitoneally every 48 hours from day 42", "method": "To see if targeting and silencing TRAF3IP2 eliminates metastatic tumors in advanced metastatic TNBC, PDX model were used. 4IC tumors were induced intramammary into mice using 4IC cells [carrying a luciferase-expressing gene for ‘bioluminescence imaging’. Treatment was initiated in late stage BC indicated by advanced metastasis detectable by luciferase imaging (day 42). Animals were treated with TRAF3IP2-AO (100 μg in 50 μl) administered interperitoneally every 48 hours. Control group received SCR-AO in the same fashion (Data not shown). Representative images showing the extend of metastasis after treatment 1(T1), T5, T10, and T15. The control animals were treated with SCR-AO only on T1 and were euthanized due to the increasing tumor growth."}, "BN2 glioblastoma [1]": {"test_system": "BN2 glioblastoma", "assay": "Detection of intracranial dissemination by PCR of human-specific α-satellite DNA in brain biopsies", "assay_type": "in vivo, NSG mice", "conditions": "compared to SCR-AO treated group", "description": "To detect intracranial micrometastasis, the animals in experiments detailed in FIG. 14 were biopsied from adjacent sections of brain. The biopsy specimen were subjected to PCR assay using primers that specifically detect human-specific a-satellite DNA sequence of the centromere region of chromosome 17. Areas evaluated include the left parietal lobe, at a distance of 2 mm from the focus of initial tumor inoculation (Area I) and the right SSCx equidistant from the interhemispheric fissure relative to the focus of initial tumor inoculation (Area II) (FIG. 15)."}, "TRAF3IP2": {"test_system": "TRAF3IP2", "assay": "Post-mortem Western blotting and immunohistochemical analysis of residual TNBC tumor of AO treated animals", "assay_type": "in vivo", "description": "Post-mortem analysis of residual tumor confirmed that targeting TRAF3IP2 suppresses inflammation, angiogenesis, cell cycle and apoptosis, and genes involved in exosome release (FIG. 7(A))."}, "BN2 glioblastoma [2]": {"test_system": "BN2 glioblastoma", "assay": "Glioblastoma PDX (BN2) intracranial model, ICV administration of AO, 2PE imaging and histology", "assay_type": "in vivo, NSG mice", "description": "For the experiments reported here, the BN2 glioblastoma specimen was used in xenograft studies, and the results are shown in FIG. 14. Glioblastoma was induced by intracranial injection of tumor cells (into the left SSCx of NSG mice; 3×10^5 cells in PBS+Martigel; n=5 mice/group) isolated from primary glioblastoma tissue. At the time of the injection, a chronic cranial window was installed on the left side of the animal's skull that allowed in vivo 2PE imaging of tumor evolution.\nFor intracerebroventricular (ICV) administration of AO targeting TRAF3IP2 (TRAF3IP2-AO) or control scrambled AO (SCR-AO), a brain cannula was stereotaonctically implanted into the contralateral (right) ventricle (FIG. 14-A). Treatment of mice started on day 10 post-tumor induction with 5 μl every 48 h; 30 nanomolar AO (FIG. 14-B).\nUsing in vivo 2PE microscopy, angiograms of microvessels in glioblastoma tumors were captured through a cranial window after i.v. injection of fluorescein isothiocyanatedextran for visualization of blood vessels (green signal). Images correspond to day 24 post-tumor induction, after 8 ICV treatments with either SCR-AO (B, I&II; control group), or TRAF3IP2-AO (B IV&V).\nProtein expression in residual tumors confirmed that targeting TRAF3IP2 suppresses inflammation, neoangiogenesis, cell cycle and apoptosis (FIG. 14-D)."}, "TNBC [3]": {"test_system": "TNBC", "assay": "TNBC treated in vivo with antisense oligonucleotide, immunohistochemical analysis of angiogenesis", "description": "Also, it is notable that TRAF3IP2 induces the expression and release of pro-angiogenic mediators into the TME, activating endothelial cells to promote neo-vascularization. TRAF3IP2 silencing."}, "TNBC [4]": {"test_system": "TNBC", "assay": "Detection of micrometastasis using PCR in TNBC metastatic niches of AO treated animals", "assay_type": "in vivo, mice", "conditions": "α-satellite DNA of chromosome 17", "method": "FIG. 4E. Detection of micrometastasis using PCR. Key TNBC metastatic niches were analyzed for micrometastasis using primers directed towards a human-specific alpha-satellite DNA sequence of the centromere region of human chromosome 17.\nMoreover, PCR using primers that specifically detect human-specific a-satellite DNA sequence of the centromere region of human chromosome 17 indicated no micrometastasis in the treated group."}},
  "note": "Entries after “also recorded” stand apart in the source; their conditions may differ.",
  "data": [
    {"compound": "CS(=O)(=O)Nc1cc2occ(NC=O)c(=O)c2cc1Oc1ccccc1", "note": "[IGU, N-[7-(methanesulfonamido)-4-oxo-6-phenoxychromen-3-yl]formamide]", "values": [
      {"measurement": "cell viability", "setting": "U87; 48 hours, C2 (224.823 mM IGU), U87TRAF3IP2KD", "result": "about 40%"},
      {"measurement": "cell viability", "setting": "U87; 48 hours, C2 (224.823 mM IGU), control group U87", "result": "about 50%"},
      {"measurement": "cell viability", "setting": "U87; 72 hours, C2, U87TRAF3IP2KD", "result": "about 20%"},
      {"measurement": "cell viability", "setting": "U87; 72 hours, C2, control group U87", "result": "about 40%"},
      {"measurement": "cell viability", "setting": "KNS; 24 hours, C2, KNS control", "result": "about 65%"},
      {"measurement": "cell viability", "setting": "KNS; 24 hours, C2, KNSTRAF3IP2KD", "result": "about 55%"},
      {"measurement": "cell viability", "setting": "KNS; 48 hours, C1, KNS control", "result": "about 55%"},
      {"measurement": "cell viability", "setting": "KNS; 48 hours, C1, KNSTRAF3IP2KD", "result": "about 45%"},
      {"measurement": "cell viability", "setting": "KNS; 72 hours, C2, KNS control", "result": "about 40%"},
      {"measurement": "cell viability", "setting": "KNS; 72 hours, C2, cells not named (KNSTRAF3IP2KD implied)", "result": "about 25%"}
    ]},
    {"compound": "CC(=O)O[C@H]1C(=O)[C@@]2(C)[C@H]([C@H](OC(=O)c3ccccc3)[C@]3(O)C[C@H](OC(=O)[C@H](O)[C@@H](NC(=O)c4ccccc4)c4ccccc4)C(C)=C1C3(C)C)[C@]1(OC(C)=O)CO[C@@H]1C[C@@H]2O", "note": "[Paclitaxel, reference compound]", "values": [
      {"measurement": "increase of proportion of cells in G2", "setting": "4IC", "result": 23, "unit": "%"},
      {"measurement": "reduction of tumor volume / tumor size", "setting": "wild type 4IC cells", "result": 42, "unit": "%"}
    ]},
    {"compound": "FCCP", "values": [
      {"measurement": "mitochondrial membrane potential on addition of FCCP", "setting": "TNBC cells", "result": "does not decrease mitochondrial membrane potential"}
    ]},
    {"compound": "TRAF3IP2-AO: anti-sense oligonucleotide targeting TRAF3IP2, SEQ ID NO: 2 mG*mG*mU*mG*mG*G*C*A*C*A*T*G*C*T*C*mC*mU*mU*mC*mU", "values": [
      {"measurement": "luciferase signal (metastasis)", "setting": "4IC tumors", "result": "marked reduction of luciferase signal, reaching undetectable levels after 15 treatments"},
      {"measurement": "intracranial metastasis at Area I (left parietal lobe) and Area II (right SSCx)", "setting": "BN2 glioblastoma [1]", "result": "markedly reduced metastasis at both sites"},
      {"measurement": "immunohistochemical levels of TRAF3IP2, IL8 and Caspase 3 in tumor", "setting": "TRAF3IP2; treated group vs. SCR-AO", "result": "decreased levels of TRAF3IP2 and IL8 and increased Caspase 3"},
      {"measurement": "levels of TRAF3IP2, IL8, IL1b, and VEGF in tumors (protein expression analysis)", "setting": "TRAF3IP2; vs. SCR-AO", "result": "significantly lower levels"},
      {"measurement": "tumor growth / tumor size", "setting": "BN2 glioblastoma [2]; ICV, 5 μl every 48 h, 30 nanomolar AO from day 10, vs. SCR-AO", "result": "reduced tumor growth; also recorded: marked reduction in tumor size; also recorded: significantly less growth and smaller volumes"},
      {"measurement": "blood vessel density / vascularization", "setting": "BN2 glioblastoma [2]; compared to SCR-AO treated", "result": "lower blood vessel density/angiogenesis; also recorded: less vascularization"},
      {"measurement": "glioblastoma cells (human cells) in residual tumor tissue, staining for human-specific mitochondria", "setting": "BN2 glioblastoma [2]; mouse, in vivo", "result": "significantly less number"},
      {"measurement": "infiltrating cells in subcortical areas (histology of brain sections)", "setting": "BN2 glioblastoma [2]; mouse, in vivo", "result": "significantly smaller number of infiltrating cells"},
      {"measurement": "tumor growth", "setting": "TNBC [3]; TNBC in vivo", "result": "reduced tumor growth"},
      {"measurement": "blood vessel density/angiogenesis (CD31 staining)", "setting": "TNBC [3]; compared to SCR-AO treated tumors", "result": "lower blood vessel density/angiogenesis"},
      {"measurement": "TNBC cells (human cells) in residual tumor tissue, staining for human-specific mitochondria", "setting": "TNBC [3]; in vivo", "result": "significantly less number"},
      {"measurement": "micrometastasis: human-specific DNA sequence in most common metastatic sites", "setting": "TNBC [4]", "result": "No human specific DNA sequence was detected"},
      {"measurement": "reduction of tumor volume / tumor size", "setting": "wild type 4IC cells", "result": 78, "unit": "%"}
    ]}
  ]
}
